In PubChem BioAssay AID2060609 (Molecular Pharmacology Branch, DTP, NCI, 2025):

System: 855422-203-R-J1-PDC complex spheroids, viability
Assay: Anticancer human tumor 855422-203-R-J1-PDC patient-derived bladder carcinoma cell line growth inhibition [CLK]
Details: for IC50: curve of first compound; for viability, T/C: stronger effect = lower value
Summary of the method: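 Multi-cell-type spheroids combined patient-derived tumor cells with HUVEC endothelial cells and human mesenchymal stem cells. Paired agents were dosed in half-log steps down from about clinical Cmax, or from 10 microM where Cmax was unknown.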

[1] = second compound 0.0316 µM, first compound 0.0316 µM
[2] = second compound 0.0316 µM, first compound 0.1 µM
[3] = second compound 0.1 µM, first compound 0.0316 µM
[4] = second compound 0.1 µM, first compound 0.1 µM
[5] = second compound 0.316 µM, first compound 0.0316 µM
[6] = second compound 0.316 µM, first compound 0.1 µM
[7] = second compound 1 µM, first compound 0.0316 µM
[8] = second compound 1 µM, first compound 0.1 µM
[9] = second compound 3.16 µM, first compound 0.0316 µM
[10] = second compound 3.16 µM, first compound 0.1 µM
[11] = second compound 10 µM, first compound 0.0316 µM
[12] = second compound 10 µM, first compound 0.1 µM
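Further: spheroids exposed to drugs for seven days before readout.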
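Wherever viability, T/C is given: 100% = DMSO vehicle control wells.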

NC(=O)C(=Cn1cnc(-c2cc(C(F)(F)F)cc(C(F)(F)F)c2)n1)c1cncnc1 + CN1CCN(c2cc(C(=O)Nc3cc4cc(-c5cnn(C)c5)ccc4cn3)ccn2)CC1 was tested, and the IC50 (second compound 0.0316 µM) was 70.6 nM, the IC50 (second compound 0.1 µM) was 52.3 nM and the IC50 (second compound 0.316 µM) was < 9.49 nM. For the same molecule, the IC50 (second compound 1 µM) was < 9.49 nM, the IC50 (second compound 3.16 µM) was < 9.49 nM and the IC50 (second compound 10 µM) was < 9.49 nM. The viability, T/C (second compound 0.0316 µM, first compound 0.00949 µM) was 137%, the viability, T/C (second compound 0.0316 µM, first compound 0.03 µM) was 122% and the viability, T/C (second compound 0.0316 µM, first compound 0.0949 µM) was 25.1%. It also gave a viability, T/C (second compound 0.0316 µM, first compound 0.3 µM) of 5.66%, a viability, T/C (second compound 0.0316 µM, first compound 0.949 µM) of 6% and a viability, T/C (second compound 0.0316 µM, first compound 3 µM) of 1.88%. The viability, T/C (second compound 0.1 µM, first compound 0.00949 µM) was 82.6%, the viability, T/C (second compound 0.1 µM, first compound 0.03 µM) was 90.1% and the viability, T/C (second compound 0.1 µM, first compound 0.0949 µM) was 11.2%. The viability, T/C (second compound 0.1 µM, first compound 0.3 µM) was 2.07%, the viability, T/C (second compound 0.1 µM, first compound 0.949 µM) was 3.91% and the viability, T/C (second compound 0.1 µM, first compound 3 µM) was 0.25%. It also gave a viability, T/C (second compound 0.316 µM, first compound 0.00949 µM) of 2.6%, a viability, T/C (second compound 0.316 µM, first compound 0.03 µM) of 1.37% and a viability, T/C (second compound 0.316 µM, first compound 0.0949 µM) of 1.48%. It also gave a viability, T/C (second compound 0.316 µM, first compound 0.3 µM) of 0.21%, a viability, T/C (second compound 0.316 µM, first compound 0.949 µM) of 0.13% and a viability, T/C (second compound 0.316 µM, first compound 3 µM) of 0.05%. The viability, T/C (second compound 1 µM, first compound 0.00949 µM) was 0.15%, the viability, T/C (second compound 1 µM, first compound 0.03 µM) was 0.76% and the viability, T/C (second compound 1 µM, first compound 0.0949 µM) was 0.42%. For the same molecule, the viability, T/C (second compound 1 µM, first compound 0.3 µM) was 0.21%, the viability, T/C (second compound 1 µM, first compound 0.949 µM) was 0.71% and the viability, T/C (second compound 1 µM, first compound 3 µM) was 0.05%. It also gave a viability, T/C (second compound 3.16 µM, first compound 0.00949 µM) of 0.27%, a viability, T/C (second compound 3.16 µM, first compound 0.03 µM) of 0.21% and a viability, T/C (second compound 3.16 µM, first compound 0.0949 µM) of 0.42%. The viability, T/C (second compound 3.16 µM, first compound 0.3 µM) was 0.13%, the viability, T/C (second compound 3.16 µM, first compound 0.949 µM) was 0.22% and the viability, T/C (second compound 3.16 µM, first compound 3 µM) was 0.09%. For the same molecule, the viability, T/C (second compound 10 µM, first compound 0.00949 µM) was 0.14%, the viability, T/C (second compound 10 µM, first compound 0.03 µM) was 0.09% and the viability, T/C (second compound 10 µM, first compound 0.0949 µM) was 0.34%. For the same molecule, the viability, T/C (second compound 10 µM, first compound 0.3 µM) was 0.23%, the viability, T/C (second compound 10 µM, first compound 0.949 µM) was 0.6% and the viability, T/C (second compound 10 µM, first compound 3 µM) was 0.2%.
For Cn1ncnc1[C@H]1c2n[nH]c(=O)c3cc(F)cc(c23)N[C@@H]1c1ccc(F)cc1 + CNC(=O)c1ccc(Nc2nc(OC3CCCC3)c3c(-c4ccc5nc(C)oc5c4)c[nH]c3n2)c(OC)c1, the IC50 (second compound 0.0316 µM) was > 100 nM, the IC50 (second compound 0.1 µM) was 36 nM and the IC50 (second compound 0.316 µM) was < 0.316 nM. The IC50 (second compound 1 µM) was < 0.316 nM, the IC50 (second compound 3.16 µM) was < 0.316 nM and the IC50 (second compound 10 µM) was < 0.316 nM. The viability, T/C (second compound 0.0316 µM, first compound 0.000316 µM) was 118%, the viability, T/C (second compound 0.0316 µM, first compound 0.001 µM) was 102% and the viability, T/C (second compound 0.0316 µM, first compound 0.00316 µM) was 126%. It also gave a viability, T/C (second compound 0.0316 µM, first compound 0.01 µM) of 109%, a viability, T/C [1] of 102% and a viability, T/C [2] of 110%. It also gave a viability, T/C (second compound 0.1 µM, first compound 0.000316 µM) of 57.1%, a viability, T/C (second compound 0.1 µM, first compound 0.001 µM) of 59.4% and a viability, T/C (second compound 0.1 µM, first compound 0.00316 µM) of 45.4%. For the same molecule, the viability, T/C (second compound 0.1 µM, first compound 0.01 µM) was 66.2%, the viability, T/C [3] was 43.5% and the viability, T/C [4] was 47.3%. The viability, T/C (second compound 0.316 µM, first compound 0.000316 µM) was 19.1%, the viability, T/C (second compound 0.316 µM, first compound 0.001 µM) was 22.2% and the viability, T/C (second compound 0.316 µM, first compound 0.00316 µM) was 20.5%. The viability, T/C (second compound 0.316 µM, first compound 0.01 µM) was 24.7%, the viability, T/C [5] was 24.2% and the viability, T/C [6] was 21.5%. For the same molecule, the viability, T/C (second compound 1 µM, first compound 0.000316 µM) was 21%, the viability, T/C (second compound 1 µM, first compound 0.001 µM) was 17.4% and the viability, T/C (second compound 1 µM, first compound 0.00316 µM) was 18%. For the same molecule, the viability, T/C (second compound 1 µM, first compound 0.01 µM) was 18.8%, the viability, T/C [7] was 18.4% and the viability, T/C [8] was 18.2%. The viability, T/C (second compound 3.16 µM, first compound 0.000316 µM) was 17.9%, the viability, T/C (second compound 3.16 µM, first compound 0.001 µM) was 17.6% and the viability, T/C (second compound 3.16 µM, first compound 0.00316 µM) was 22.1%. For the same molecule, the viability, T/C (second compound 3.16 µM, first compound 0.01 µM) was 18.5%, the viability, T/C [9] was 21.7% and the viability, T/C [10] was 19.3%. The viability, T/C (second compound 10 µM, first compound 0.000316 µM) was 20.3%, the viability, T/C (second compound 10 µM, first compound 0.001 µM) was 21.9% and the viability, T/C (second compound 10 µM, first compound 0.00316 µM) was 19.2%. For the same molecule, the viability, T/C (second compound 10 µM, first compound 0.01 µM) was 22%, the viability, T/C [11] was 18% and the viability, T/C [12] was 15.5%.
With CC(CO)NC(=O)c1cc(-c2ccc(Cl)cc2)nn(-c2cnn(C)c2)c1=O (stereo unspecified) + CNC(=O)c1ccc(Nc2nc(OC3CCCC3)c3c(-c4ccc5nc(C)oc5c4)c[nH]c3n2)c(OC)c1 the IC50 (second compound 0.0316 µM) was > 10000 nM, the IC50 (second compound 0.1 µM) was 3540 nM and the IC50 (second compound 0.316 µM) was < 31.6 nM. For the same molecule, the IC50 (second compound 1 µM) was < 31.6 nM, the IC50 (second compound 3.16 µM) was < 31.6 nM and the IC50 (second compound 10 µM) was < 31.6 nM. It also gave a viability, T/C [1] of 99%, a viability, T/C [2] of 78.6% and a viability, T/C (second compound 0.0316 µM, first compound 0.316 µM) of 87.3%. It also gave a viability, T/C (second compound 0.0316 µM, first compound 1 µM) of 95%, a viability, T/C (second compound 0.0316 µM, first compound 3.16 µM) of 96% and a viability, T/C (second compound 0.0316 µM, first compound 10 µM) of 80.9%. The viability, T/C [3] was 50.1%, the viability, T/C [4] was 50.6% and the viability, T/C (second compound 0.1 µM, first compound 0.316 µM) was 55%. The viability, T/C (second compound 0.1 µM, first compound 1 µM) was 63%, the viability, T/C (second compound 0.1 µM, first compound 3.16 µM) was 46% and the viability, T/C (second compound 0.1 µM, first compound 10 µM) was 42.5%. The viability, T/C [5] was 23%, the viability, T/C [6] was 21.9% and the viability, T/C (second compound 0.316 µM, first compound 0.316 µM) was 22.9%. For the same molecule, the viability, T/C (second compound 0.316 µM, first compound 1 µM) was 22.4%, the viability, T/C (second compound 0.316 µM, first compound 3.16 µM) was 20.8% and the viability, T/C (second compound 0.316 µM, first compound 10 µM) was 21.8%. The viability, T/C [7] was 18.8%, the viability, T/C [8] was 19.7% and the viability, T/C (second compound 1 µM, first compound 0.316 µM) was 19.8%. It also gave a viability, T/C (second compound 1 µM, first compound 1 µM) of 20.7%, a viability, T/C (second compound 1 µM, first compound 3.16 µM) of 20.5% and a viability, T/C (second compound 1 µM, first compound 10 µM) of 21%. The viability, T/C [9] was 24.3%, the viability, T/C [10] was 20.9% and the viability, T/C (second compound 3.16 µM, first compound 0.316 µM) was 22.7%. The viability, T/C (second compound 3.16 µM, first compound 1 µM) was 22.2%, the viability, T/C (second compound 3.16 µM, first compound 3.16 µM) was 22.3% and the viability, T/C (second compound 3.16 µM, first compound 10 µM) was 20%. The viability, T/C [11] was 16.7%, the viability, T/C [12] was 21.2% and the viability, T/C (second compound 10 µM, first compound 0.316 µM) was 22.2%. The viability, T/C (second compound 10 µM, first compound 1 µM) was 20.5%, the viability, T/C (second compound 10 µM, first compound 3.16 µM) was 19.9% and the viability, T/C (second compound 10 µM, first compound 10 µM) was 20%.
